Ten compounds from ChEMBL document CHEMBL4043271, “Synthesis, computational studies and enzyme inhibitory kinetics of substituted methyl[2-(4-dimethylamino-benzylidene)-hydrazono)-4-oxo-thiazolidin-5-ylidene]acetates as mushroom tyrosinase inhibitors” (Bioorg Med Chem, 2017) can be followed below.

Active and inactive are the calls of the source. The calls are words filed in the database; no cut-off is given here.

The target of data set [1] is T1, Mushroom tyrosinase (Agaricus bisporus, UniProt O42713+Q00024+C7FF04+C7FF05). The experiment in a line: Inhibition of mushroom tyrosinase using L-DOPA as substrate preincubated for 10 mins followed by substrate addition measured after 20 mins.
In data set [2] the test system is COC(=O)/C=C1\S/C(=N/N=C/c2ccncc2)NC1=O. Briefly: Non-competitive inhibition of mushroom tyrosinase assessed as Vmax of substrate at 17 uM preincubated for 10 mins followed by addition of varying concentration of substrate L-DOPA measured every 30 secs up to 5 mins by Lineweaver-Burk plot analysis (reference value: […] deltaA/s). The following applies: Agaricus bisporus.

For data set [3] the test system is unchanged. The experiment in a line: Non-competitive inhibition of mushroom tyrosinase assessed as Vmax of substrate at 1.06 uM preincubated for 10 mins followed by addition of varying concentration of substrate L-DOPA measured every 30 secs up to 5 mins by Lineweaver-Burk plot analysis (reference value: […] deltaA/s). As to conditions: Agaricus bisporus.
Data set [4] shares this test system. Briefly: Non-competitive inhibition of mushroom tyrosinase assessed as Vmax of substrate at 8.50 uM preincubated for 10 mins followed by addition of varying concentration of substrate L-DOPA measured every 30 secs up to 5 mins by Lineweaver-Burk plot analysis (reference value: […] deltaA/s). As to conditions: Agaricus bisporus.
Data set [5] shares this test system. The experiment in a line: Non-competitive inhibition of mushroom tyrosinase assessed as substrate Km at 1.06 to 17 uM preincubated for 10 mins followed by addition of varying concentration of substrate L-DOPA measured after 20 mins by Lineweaver-Burk plot analysis (reference value: […] mM). As to conditions: Agaricus bisporus.
For data set [6], the target named is Mushroom tyrosinase (Agaricus bisporus) (UniProt O42713+Q00024+C7FF04+C7FF05). Briefly: Non-competitive inhibition of mushroom tyrosinase at 1.06 to 34 uM preincubated for 10 mins followed by addition of varying concentration of substrate L-DOPA measured after 20 mins by Dixon plot analysis.
The target of data set [7] is T1, Mushroom tyrosinase. Briefly: Non-competitive inhibition of mushroom tyrosinase at 1.06 to 17 uM preincubated for 10 mins followed by addition of varying concentration of substrate L-DOPA measured after 20 mins by Lineweaver-Burk plot analysis.

Mushroom tyrosinase (Agaricus bisporus) (from UniProt O42713+Q00024+C7FF04+C7FF05), sequence (C7FF05 whole entry, looked up): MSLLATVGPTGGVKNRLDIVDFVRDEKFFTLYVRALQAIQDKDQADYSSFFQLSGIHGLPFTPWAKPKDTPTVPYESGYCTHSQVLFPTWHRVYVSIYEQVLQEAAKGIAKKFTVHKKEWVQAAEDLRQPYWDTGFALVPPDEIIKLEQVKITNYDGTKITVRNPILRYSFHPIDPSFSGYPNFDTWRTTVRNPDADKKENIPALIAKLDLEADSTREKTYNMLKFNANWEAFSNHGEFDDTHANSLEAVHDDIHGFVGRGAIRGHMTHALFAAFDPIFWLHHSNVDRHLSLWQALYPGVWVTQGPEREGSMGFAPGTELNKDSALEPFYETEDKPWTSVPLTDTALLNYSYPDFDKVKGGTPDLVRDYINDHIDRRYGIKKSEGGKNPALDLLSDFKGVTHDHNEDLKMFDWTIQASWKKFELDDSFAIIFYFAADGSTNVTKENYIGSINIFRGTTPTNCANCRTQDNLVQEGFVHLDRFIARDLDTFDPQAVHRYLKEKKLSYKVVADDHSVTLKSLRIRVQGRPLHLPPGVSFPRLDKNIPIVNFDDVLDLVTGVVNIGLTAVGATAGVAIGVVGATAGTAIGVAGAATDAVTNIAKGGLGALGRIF
Mushroom tyrosinase (Agaricus bisporus) (from UniProt O42713+Q00024+C7FF04+C7FF05), sequence (C7FF04 whole entry, looked up): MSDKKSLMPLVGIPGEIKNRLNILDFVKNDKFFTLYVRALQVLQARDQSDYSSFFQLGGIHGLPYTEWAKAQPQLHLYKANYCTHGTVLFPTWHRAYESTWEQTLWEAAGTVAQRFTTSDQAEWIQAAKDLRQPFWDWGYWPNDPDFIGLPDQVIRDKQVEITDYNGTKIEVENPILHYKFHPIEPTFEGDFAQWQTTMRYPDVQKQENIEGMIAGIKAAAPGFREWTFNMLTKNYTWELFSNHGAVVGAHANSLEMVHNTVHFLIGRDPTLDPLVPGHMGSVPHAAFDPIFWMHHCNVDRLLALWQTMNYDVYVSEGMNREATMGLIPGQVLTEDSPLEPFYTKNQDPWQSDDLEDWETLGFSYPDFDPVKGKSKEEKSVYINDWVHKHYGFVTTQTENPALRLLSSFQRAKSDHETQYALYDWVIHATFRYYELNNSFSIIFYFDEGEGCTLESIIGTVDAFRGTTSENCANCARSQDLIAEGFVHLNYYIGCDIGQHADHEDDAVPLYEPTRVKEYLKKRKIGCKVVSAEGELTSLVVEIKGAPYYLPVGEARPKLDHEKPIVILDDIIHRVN
Mushroom tyrosinase (Agaricus bisporus) (from UniProt O42713+Q00024+C7FF04+C7FF05), sequence (Q00024 whole entry, looked up): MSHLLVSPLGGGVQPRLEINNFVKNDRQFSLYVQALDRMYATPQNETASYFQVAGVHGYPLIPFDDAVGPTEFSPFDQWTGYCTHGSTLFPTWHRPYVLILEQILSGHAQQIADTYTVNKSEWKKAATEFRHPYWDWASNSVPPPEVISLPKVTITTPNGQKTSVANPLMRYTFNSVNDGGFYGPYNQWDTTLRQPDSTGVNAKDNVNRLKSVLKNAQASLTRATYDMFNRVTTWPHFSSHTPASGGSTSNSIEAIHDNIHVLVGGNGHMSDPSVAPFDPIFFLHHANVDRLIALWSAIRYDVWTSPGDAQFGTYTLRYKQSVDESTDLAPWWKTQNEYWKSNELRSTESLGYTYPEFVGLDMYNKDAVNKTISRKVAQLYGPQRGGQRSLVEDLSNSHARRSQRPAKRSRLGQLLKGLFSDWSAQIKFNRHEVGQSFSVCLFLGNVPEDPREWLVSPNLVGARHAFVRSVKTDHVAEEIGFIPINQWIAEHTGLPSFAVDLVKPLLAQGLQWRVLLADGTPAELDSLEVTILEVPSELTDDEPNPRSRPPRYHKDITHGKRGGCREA
Mushroom tyrosinase (Agaricus bisporus) (from UniProt O42713+Q00024+C7FF04+C7FF05), sequence (O42713 whole entry, looked up): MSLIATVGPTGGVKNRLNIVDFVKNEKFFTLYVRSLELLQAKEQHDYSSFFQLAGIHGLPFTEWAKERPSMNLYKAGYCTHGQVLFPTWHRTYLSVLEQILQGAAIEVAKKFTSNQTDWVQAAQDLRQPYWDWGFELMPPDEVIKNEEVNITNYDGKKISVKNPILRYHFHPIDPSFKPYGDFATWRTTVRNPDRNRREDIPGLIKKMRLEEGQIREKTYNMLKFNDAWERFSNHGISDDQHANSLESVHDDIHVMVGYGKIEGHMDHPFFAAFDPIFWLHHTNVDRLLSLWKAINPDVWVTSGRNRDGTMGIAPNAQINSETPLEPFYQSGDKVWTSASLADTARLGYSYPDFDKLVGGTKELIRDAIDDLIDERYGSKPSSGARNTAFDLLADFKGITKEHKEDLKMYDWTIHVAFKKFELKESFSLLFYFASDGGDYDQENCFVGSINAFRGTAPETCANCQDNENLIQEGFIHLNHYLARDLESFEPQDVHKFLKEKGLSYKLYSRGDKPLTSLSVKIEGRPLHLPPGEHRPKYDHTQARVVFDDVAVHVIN

Compound `COC(=O)/C=C1\SC(N/N=C/c2ccco2)=NC1=O` registered a 50% inhibitory concentration (IC50) against Mushroom tyrosinase [1] of 75.26 µM. The same measure, in the same setting: under `COC(=O)/C=C1\S/C(=N/N=C/C=C/c2ccccc2)NC1=O` stands 208.25 µM; under `COC(=O)/C=C1\S/C(=N/N=C/c2ccc(OCc3ccc(OC)cc3)cc2)NC1=O`, 297.6 µM; under `COC(=O)/C=C1\S/C(=N/N=C/c2ccc(C)o2)NC1=O`, 49.82 µM. As to “Mushroom tyrosinase (Agaricus bisporus) (from UniProt O42713+Q00024+C7FF04+C7FF05)”, the Vmax (10'-3deltaA/s) turned out to be 3.33 in data set [2] and 1 in data set [4]. Further, in data set [3], the Vmax (10'-4deltaA/s) is 5.55. Besides, the Km in data set [5] was found to be 1000 µM. On to `COC(=O)/C=C1\S/C(=N/N=C/c2ccc(Br)s2)NC1=O`, for which, on Mushroom tyrosinase [1], the IC50 came to 348.93 µM.

On Mushroom tyrosinase [1], `COC(=O)/C=C1\S/C(=N/N=C/c2ccc[nH]2)NC1=O` came in with an IC50 of 50.12 µM. On Mushroom tyrosinase [1], `COC(=O)/C=C1\S/C(=N/N=C/c2ccc(N(C)C)cc2)NC1=O` returned an IC50 of 100.45 µM. Consider `COC(=O)/C=C1\S/C(=N/N=C/c2ccncc2)NC1=O`, for which, in data set [6], the inhibition entry was “Active”. On Mushroom tyrosinase [1], this compound returned an IC50 of 3.17 µM. Further, the Ki at Mushroom tyrosinase [7] turned out to be 1.5 µM.

At Mushroom tyrosinase [1], `COC(=O)/C=C1\S/C(=N/N=C/c2ccc(OCc3ccccc3)cc2)NC1=O` came in with an IC50 of 141.77 µM.

One may read the IC50 as the concentration that inhibits the measured activity by half. High values mean weaker potency in that assay, low ones greater potency in that assay. Usually Km stands for the concentration of substrate that gives half-maximal velocity. For orientation: Ki means a dissociation constant, usually derived from enzyme kinetics or from competition with a known ligand. Higher therefore signals a looser hold on the target.
